These results are taken from article PMC10657444, “Design and evaluation of tadpole-like conformational antimicrobial peptides” (Communications Biology, 2023).

Broadly, the IC50 is the concentration needed to halve the response being measured. Read a low IC50 as greater potency.

In series [1] the test system is MRSA USA 300. Nature of the series: Membrane depolarization assay, DiSC3(5). The class given is cell-based, Staphylococcus aureus. As for the experimental part: MRSA USA 300 and K. pneumoniae ATCC 700603 were inoculated into 5 mL of LB and shaken at 37°C and 225 rpm to OD600 ≈ 0.5 (i.e., mid-logarithmic phase). Bacteria were collected by centrifugation at 8000 rpm for 5 min, and washed twice with assay buffer (5 mM HEPES, 20 mM glucose, 10 mM KCl, pH 7.2). Bacteria were resuspended in the assay buffer to OD595 ≈ 0.1. DiSC3(5) was added to the cells at final concentration of 0.3 µM, wrapped with aluminum foil, and incubated at 37°C, until a stable fluorescence was observed. Two microliter of compound or DMSO were transferred into 96-well black walled polystyrene plates, to which was added 98 µL per well of the dye-saturated bacterial cells to initiate the reaction. The final concentration of HT2 and RI-HT2 were 1 ×, 2 ×, 4 × and 8 × MIC. Plates were immediately read on an Envison at λex = 622 nm/ λem = 670 nm with a kinetic program (reading every 1 min for 10 min) until the maximal intensity achieved was observed.

Series [2] deals with K. pneumoniae ATCC 700603. Type of series: cell-based, Klebsiella pneumoniae. Here is the method: The stability of peptides in different media was assessed using the MIC assay described above. Here, the stability of HT2 and RI-HT2 in serum, salt, and different pH were analyzed using methods previously described with some modifications. For serum stability, a solution of 10% or 20% fetal bovine serum (FBS) was made by diluting fetal bovine serum with phosphate buffer saline (PBS). HT2 and RI-HT2 were added for a final concentration of 160 µg/mL of peptide in the FBS solution, and incubation 2 h. Suspension containing no peptide was considered the negative control. The MIC of HT2 and RI-HT2 against MRSA USA 300 and K. pneumoniae ATCC 700603 were measured. For the acid stability assays, the peptides were incubated with different pH values of PBS (pH = 5.5 or 6.4) at 37 °C. These peptide mixtures were then serially diluted in a 96-well plate for the evaluation of antimicrobial activity against bacterial strains. Similarly, for salt stability, the peptides were assessed for their antimicrobial activity against MRSA USA 300 and K. pneumoniae ATCC 700603 in the presence of 150 mM NaCl.

The next series has as its system E. coli ATCC 25922. The class given is cell-based, Escherichia coli. An excerpt: Bacteria were cultivated in Luria-Bertani (LB) broth.
A further series concerns HEK293T cells. In words: MTT cytotoxicity assay. The class given is cell-based, human. To be noted: for percent cell viability: HEK293T. Background: Formazan colour is commonly taken as a measure of viable cells.
The nature of a further series: MTT cytotoxicity assay. The class given is cell-based, human. To be noted: human; for viability at 72 h, 0.39 µM / viability at 72 h, 6.25 µM / viability at 72 h, 12.5 µM / viability at 72 h, 0.78 µM / viability at 72 h, 1.57 µM / viability at 72 h, 3.13 µM / viability at 72 h, 25 µM / viability at 72 h, 50 µM / viability at 72 h, 100 µM: HEK293T cells.
For series [3], the system named is MRSA USA 300. In words: Transmission electron microscopy. Type of series: cell-based, Staphylococcus aureus. To be noted: 2 × MIC, 60 min. Here is the method:
(§1) The processing method of the samples for transmission electron microscopy (TEM) was the same as the treatment for SEM. The samples were then prefixed with 2.5% glutaraldehyde at 4°C overnight, post-fixed with osmium tetroxide for 70 min, and washed twice with PBS (pH 7.4). Subsequently, the samples were dehydrated for 10 min in a graded ethanol series (30, 50, 70, 90, and 100%) followed by 10 min in a mixture of absolute ethanol and acetone (1:1, v/v) and 10 min in absolute acetone. The specimens were transferred to a mixture of absolute acetone and epoxy resin (1:1, v/v) for 30 min and then to pure epoxy resin overnight at a constant temperature. Finally, the samples were sectioned using an ultramicrotome, stained with uranyl acetate and lead citrate, and then observed by TEM (Hitachi H-7650, Japan).

In series [4] the test system is K. pneumoniae ATCC 700603. Nature of the series: Scanning electron microscopy. The class given is cell-based, Klebsiella pneumoniae. To be noted: 2 × MIC, 60 min. Here is the method: Mid-log phase bacteria (MRSA USA 300 and K. pneumoniae ATCC 700603) grown in LB broth were adjusted to a density of 5 × 10^6 CFU/mL. […] All samples were centrifuged at 8000 rpm for 5 min, washed and then resuspended in PBS. Bacterial cells were fixed with 2.5% glutaraldehyde, and then incubated at 37°C on a glass slide for 20 min. Samples were dehydrated by passing through gradient ethanol (10%, 30%, 50%, 70%, 90%, and 100%) for 5 min at each concentration. Slides were dried with an automatic critical point drying instrument (Leica EM CPD300), and a small amount of gold was sputtered onto the samples using a sputter coater system to avoid charging in the microscope. Finally, the bacteria were visualized under a field-emission scanning electron microscopy (FESEM) device (Sirion 200).

Series [5] relates to K. pneumoniae ATCC 700603. In words: Transmission electron microscopy. Type of series: cell-based, Klebsiella pneumoniae. To be noted: 2 × MIC, 60 min. As for the experimental part:
as §1

Where [6] appears, read: HEK293T, read-out: OD450, cytotoxicity (Fig 2a), replicates.
Where [7] appears, read: OD450, cytotoxicity (Fig 2a), replicates.

≈ marks a conversion by molar mass, not a printed value. Where “and” joins values, the source holds several entries; their conditions need not be identical. Equal entries are not always repeated. Where two headings read alike, the source gives them in different places. Non-standard residues stand in square brackets, D forms with d. Residues, ends and D or L forms follow the SMILES beside them.

On to `CC[C@H](C)[C@H](NC(=O)[C@H](CCCNC(=N)N)NC(=O)[C@H](CCCNC(=N)N)NC(=O)[C@H](CC(C)C)NC(=O)[C@H](Cc1ccccc1)NC(=O)[C@@H](N)CCCNC(=N)N)C(=O)N[C@@H](Cc1ccccc1)C(=O)N[C@@H](Cc1ccccc1)C(=O)N[C@@H](Cc1ccccc1)C(=O)N[C@@H](Cc1ccccc1)C(N)=O` [HT2] (H-RFLRRIFFFF-NH2), for which the “concentration at which DiSC3(5) fluorescence intensity changed significantly” value in the series on MRSA USA 300 [1] is listed as 4 × MIC. Also, the “MIC against K. pneumoniae ATCC 700603” value in series [2] (150 mM NaCl) is recorded as 12.5 µM (≈ 18.1 µg/mL); in series [2] (10% FBS), 6.25 µM (≈ 9.05 µg/mL); in series [2] (20% FBS), 6.25 µM (≈ 9.05 µg/mL); in series [2] (Normal medium), 6.25 µM (≈ 9.05 µg/mL); in series [2] (pH 5.5) it was 12.5 µM (≈ 18.1 µg/mL); in series [2] (pH 6.4) it was 6.25 µM (≈ 9.05 µg/mL). The “MIC Gram- E. coli ATCC 25922” value against E. coli ATCC 25922 is 3.13 µM (≈ 4.53 µg/mL). The “toxicity / cytotoxicity against HEK293T cells (in words)” value in the series on HEK293T cells was “did not present”. The percent cell viability was 93.7324 and 94.5028 in the series on HEK293T cells (6.25 µM); 96.2979 and 92.259 in the series with HEK293T cells (12.5 µM). The molecule also had an IC50 at 72 h in the series “MTT cytotoxicity assay” of over 100 µM. Also, the viability at 72 h, 0.39 µM is 96.7% in the series “MTT cytotoxicity assay” (HEK293T, 0.39 µM, read-out: OD450, cytotoxicity (Fig 2a), replicates) and 100% in the series “MTT cytotoxicity assay” (setting [7]). In addition, in the series “MTT cytotoxicity assay” (setting [6]), the viability at 72 h, 6.25 µM was 99.2%. Moreover, the viability at 72 h, 12.5 µM in the series “MTT cytotoxicity assay” (setting [6]) was 92.8%. For the same molecule, the viability at 72 h, 0.78 µM in “MTT cytotoxicity assay” (setting [7]) is 94.2%. Besides, the viability at 72 h, 1.57 µM in “MTT cytotoxicity assay” (setting [7]) was determined as 93.1%. Besides, in the series “MTT cytotoxicity assay” (setting [7]), the viability at 72 h, 3.13 µM stood at 95.4%. Also, the viability at 72 h, 25 µM in the series “MTT cytotoxicity assay” (setting [7]) is 93.2%. In addition, the viability at 72 h, 50 µM in the series “MTT cytotoxicity assay” (setting [7]) was 98.4%. In the series “MTT cytotoxicity assay” (setting [7]), the viability at 72 h, 100 µM is 94.3%. Also, the “membrane and intracellular structure by TEM (in words)” value (shortened to “membrane and intracellular structure”) in the series on MRSA USA 300 [3] was “cytoplasmic membranes became blurred and separated”; in series [5], “cytoplasmic membranes became blurred and separated”. The “cell surface morphology by SEM (in words)” value in series [4] is “rough, shrunken, wrinkled and partially damaged”.

As for `CC[C@@H](C)[C@@H](NC(=O)[C@@H](Cc1ccccc1)NC(=O)[C@@H](Cc1ccccc1)NC(=O)[C@@H](Cc1ccccc1)NC(=O)[C@H](N)Cc1ccccc1)C(=O)N[C@H](CCCNC(=N)N)C(=O)N[C@H](CCCNC(=N)N)C(=O)N[C@H](CC(C)C)C(=O)N[C@H](Cc1ccccc1)C(=O)N[C@H](CCCNC(=N)N)C(N)=O` [RI-HT2] (H-[dF][dF][dF][dF][dI][dR][dR][dL][dF][dR]-NH2; N-terminus assumed), in the series with MRSA USA 300 [1], the “concentration at which DiSC3(5) fluorescence intensity changed significantly” value is 8 × MIC. Further, the “MIC against K. pneumoniae ATCC 700603” value in series [2] (150 mM NaCl) was 12.5 µM (≈ 18.1 µg/mL). Moreover, the “MIC against K. pneumoniae ATCC 700603” value in series [2] (ATCC 700603) was over 100 µM. Besides, the “MIC against K. pneumoniae ATCC 700603” value in series [2] (Normal medium) was 6.25 µM (≈ 9.05 µg/mL). The “MIC against K. pneumoniae ATCC 700603” value in series [2] (pH 5.5) was 12.5 µM (≈ 18.1 µg/mL). In addition, the “MIC against K. pneumoniae ATCC 700603” value in series [2] (pH 6.4) is listed as 12.5 µM (≈ 18.1 µg/mL). Besides, the “MIC Gram- E. coli ATCC 25922” value in the series on E. coli ATCC 25922 was 3.13 µM (≈ 4.53 µg/mL). The “toxicity / cytotoxicity against HEK293T cells (in words)” value in the series on HEK293T cells was “did not present”. Moreover, in the series with HEK293T cells (6.25 µM), the percent cell viability is listed as 88.3759. Further, in the series with HEK293T cells (12.5 µM), the percent cell viability was 86.6385 and 87.1349. In addition, the IC50 at 72 h in the series “MTT cytotoxicity assay” was over 100 µM. In the series “MTT cytotoxicity assay” (setting [6]), the viability at 72 h, 6.25 µM came out at 90.2% and the viability at 72 h, 12.5 µM was 87.8%. In addition, in “MTT cytotoxicity assay” (setting [7]), the viability at 72 h, 0.39 µM was 102%; the viability at 72 h, 0.78 µM stood at 94.4%; the viability at 72 h, 1.57 µM is 92.8%; the viability at 72 h, 3.13 µM stood at 93%. Also, in the series “MTT cytotoxicity assay” (setting [7]), the viability at 72 h, 25 µM was determined as 84.2%; the viability at 72 h, 50 µM amounted to 77.8%; the viability at 72 h, 100 µM is 75.8%. Moreover, the “membrane and intracellular structure” value in the series with MRSA USA 300 [3] is “cytoplasmic membranes became blurred and separated”. The “cell surface morphology by SEM (in words)” value in series [4] was “rough, shrunken, wrinkled and partially damaged”. Moreover, the “membrane and intracellular structure” value in series [5] was “cytoplasmic membranes became blurred and separated”.
